Data as given in patent US20190084939A1, “ANALOGS OF FEXARAMINE AND METHODS OF MAKING AND USING” (Salk Institute for Biological Studies, priority 2014, published 2019).
Entries after “also recorded” stand apart in the source; their conditions may differ.

Assays:
FXR-null mice = test: chronic PO fexaramine in HFD fed FXR-null mice; format: in vivo; conditions: 100 mg/kg 5 week with HFD
Experimental: Data represent the mean±SD. Statistical analysis was performed with the Student's t test. *p<0.05, **p<0.01.
Therefore, glucose tolerance tests (GTTs) and insulin tolerance tests (ITTs) were performed to determine if glucose homeostasis was improved in fexaramine-treated DIO mice.

DIO mice = test: hyperinsulinemic-euglycemic clamp in DIO mice; format: in vivo
Experimental: FIGS. 15I-15K are a line graph and two bar graphs showing the effect of fexaramine treatment on body weight, insulin-stimulated GDR, and fasting insulin levels. Mice were fed HFD for 14 weeks, and then administered daily oral injections of vehicle or fexaramine (100 mg/kg) for 3 weeks with HFD. The mice treated with fexaramine were initially heavier (by 2-3 grams). Three weeks after treatment, a clamp study was performed on the mice. Data represent the mean±STD. Statistical analysis was performed with the Student's t test (*p<0.05, **p<0.01).

TGR5 null mice = test: chronic PO fexaramine in HFD-fed TGR5-null mice; format: in vivo; conditions: 100 mg/kg/day PO 5 weeks
Experimental: HFD-fed TGR5-null mice were treated with vehicle or fexaramine (100 mg/kg os daily for 5 weeks with HFD, n=10). (A) Ileal FXR target gene expressions (B) Serum BA levels (C) Fasting glucose levels (D) Glucose tolerance test (E) Core body temperature (F) Oxygen consumption rate (G) Carbon dioxide production (H) Gene expression in BAT (I) Body weight curve (J) Body composition by MRI (K) Insulin Tolerance Test (L) Hepatic gene expression (M) Hepatic TG levels (N) and Gene expression in soleus of TGR5 knockout mice with and without fexaramine treatment. Data represent the mean±SD. Statistical analysis was performed with the Student's t test. *p<0.05, **p<0.01.
To address this possibility, HFD-fed TGR5 null mice were chronically treated with Fex (100 mg/kg/day PO for 5 weeks). […] In particular, the anti-lipogenic effects of Fex in the liver appear to require TGR5 activation, as key hepatic lipogenic genes and liver triglyceride content were not affected by Fex treatment (FIGS. 11L, 11M).

[1] = tested on: serum bile acid composition; test: serum bile acid composition by mass spectrometry in HFD mice; format: in vivo; conditions: 100 mg/kg/day per os 5 week
Experimental: Mice fed a HFD for 14 weeks were maintained on a HFD and treated with vehicle or fexaramine (100 mg/kg/day per os for 5 week). Serum bile acid composition was determined by mass spectrometry. N.D not determined.

ApcMin/+ mice = test: ApcMin/+ colon cancer mouse model; format: in vivo
Experimental: The farnesoid X receptor (FXR) is a bile acid activated nuclear receptor widely expressed through the body. The ability of the intestinal-specific FXR ligand fexaramine to inhibit the progression of colon cancer in mice with a heterozygote mutation for the Apc gene (ApcMin/+ mice on a C57B6 background obtained from Jackson Laboratories) was determined.
5 week old ApcMin/+ mice (13-15 males per group receiving a standard diet, a model for colorectal and intestinal cancer) were treated with vehicle (corn oil) or fexaramine (FEX, 100 mg/kg in corn oil) by oral gavage, three times a week for 23 weeks. Mice body weight and food-intake were measured daily. At the end of the treatment regimen, surviving animals were sacrificed by cervical dislocation and the entire intestinal tract was immediately removed and washed with cold phosphate-buffered saline.
At the completion of the treatment, the colons were removed, flushed with PBS, fixed as “Swiss-rolls” in 4% paraformaldehyde at 4° C. overnight, and paraffin-embedded. Sections (5 μm) were cut stepwise (200 μm) through the complete block and stained with H&E. Tumor counts were performed blinded by a trained pathologist. To determine proliferation rates, mice were injected i.p. with 100 mg/kg of BrdU 2.5 hours prior to sacrifice and paraffin sections stained using a BrdU-in situ detection kit. The extent of apoptosis was determined by TUNEL assay using the ApoAlert DNA fragmentation assay kit. BrdU- and TUNEL-positive cells were counted by an investigator blinded to the genotype. For immunohistochemistry, antigen retrieval was performed (Vector Lab H3300) and then RTU Vectastain Universal Elite ABC Kit and NovaRED or VIP substrate (all from Vector Lab) were used, following the manufacturer's instructions.
Statistical analysis were performed in collaboration with the Cancer Prevention-Biostatistics department at the University of California at San Diego Cancer Center. This is part of an ongoing collaboration and has previously been applied to the APC^Min model of colorectal cancer as well as to several other cancer models including prostate and breast cancer. The volume of polyps was calculated considering them as hemispheres (½×[…] π r^3). All other evaluations were performed in the distal tract of the small intestine because ApcMin/+ mice develop the majority of tumors in the small intestine.

human TGR5 = molecular target: T1, human TGR5 (Homo sapiens, UniProt Q8TDU6); test: TGR5 activation, cAMP-response element luciferase in HEK293 cells; format: cell-based; conditions: 24 hours after transfection
T1 construct: expressed in transfected cells; host or cells: HEK293 cells
T1 sequence (Q8TDU6 1-330): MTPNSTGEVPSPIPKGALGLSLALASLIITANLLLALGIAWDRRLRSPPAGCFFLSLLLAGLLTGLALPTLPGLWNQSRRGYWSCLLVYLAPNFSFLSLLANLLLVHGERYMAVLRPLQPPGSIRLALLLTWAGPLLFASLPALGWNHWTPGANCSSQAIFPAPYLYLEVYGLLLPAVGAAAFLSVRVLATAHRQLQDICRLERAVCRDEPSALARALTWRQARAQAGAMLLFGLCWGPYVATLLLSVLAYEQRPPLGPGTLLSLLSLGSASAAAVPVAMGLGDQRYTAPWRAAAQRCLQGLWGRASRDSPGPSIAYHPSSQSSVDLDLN
Experimental: HEK293 cells were transfected with expression vectors for cAMP-response element luciferase, β-galactosidase and human TGR5. 24 hours after transfection, cells were treated with fexaramine or INT-777 (a TGR5 agonist).

SMILES: COC(=O)/C=C/c1cccc(N(Cc2ccc(-c3ccc(N(C)C)cc3)cc2)C(=O)C2CCCCC2)c1 [Fexaramine, fexaramine]
- Fex-induced changes in gene expression and metabolic homeostasis (FXR-null mice): abrogated
- insulin-mediated suppression of HGP (DIO mice; versus control DIO mice): marked increase
- basal HGP, GDR, IS-GDR, FFA suppression and fasting insulin levels (DIO mice; weight-matched cohorts): No differences
- FXR target genes in the ileum incl. FGF15 (TGR5 null mice): induced
- core body temperature and metabolic rate (TGR5 null mice): somewhat blunted increases
- fasting glucose levels and glucose tolerance (TGR5 null mice): moderate improvements
- hepatic lipogenic genes and liver triglyceride content (TGR5 null mice): not affected
- serum BA levels (TGR5 null mice): lowered
- weight gain or insulin sensitivity (TGR5 null mice): no significant changes
- Bile Acid Composition (%): CA [1]: 7.51%
- Bile Acid Composition (%): CDCA [1]: 2.51%
- Bile Acid Composition (%): DCA [1]: 7.67%
- Bile Acid Composition (%): GLCA [1]: 0.51%
- Bile Acid Composition (%): HDCA [1]: 0.36%
- Bile Acid Composition (%): LCA [1]: 28.13%
- Bile Acid Composition (%): T-UDCA [1]: 3.07%
- Bile Acid Composition (%): T-beta MCA [1]: 29.16%
- Bile Acid Composition (%): TCA [1]: 12.23%
- Bile Acid Composition (%): TCDCA [1]: 1.13%
- Bile Acid Composition (%): TDCA [1]: 1.02%
- Bile Acid Composition (%): UDCA [1]: 0.05%
- Bile Acid Composition (%): omega MCA [1]: 6.65%
- colon cancer-induced cachexia (weight loss) (ApcMin/+ mice; 100 mg/kg oral gavage three times a week): resistant to colon cancer-induced cachexia
- serum total cholesterol and triglyceride levels (ApcMin/+ mice; after 23 weeks): reduces circulating triglycerides; also recorded: reduced
- tumor size in duodenum, jejunum, ileum and throughout the intestine (ApcMin/+ mice; after 23 weeks): dramatic reduction in tumor size
- tumors in colon sections (ApcMin/+ mice; after 23 weeks): No tumors were observed
- reduction in total tumor burden versus vehicle (ApcMin/+ mice; after 23 weeks, p 0.04): 20%
- reduction in tumor burden in the ileum (ApcMin/+ mice; after 23 weeks, p 0.08): 25%
- reduction in tumor burden in the jejunum (ApcMin/+ mice; after 23 weeks, p 0.08): 11.75%
- tumor burden in the duodenum (ApcMin/+ mice; after 23 weeks, p 0.73): no change in tumor burden
- survival at 25 weeks (ApcMin/+ mice; vehicle 20%): 80%
- body weight change (ApcMin/+ mice; vehicle-treated mice lose ˜10%): maintain their weight
- activation of TGR5 (human TGR5): fails to activate TGR5
- activation of TGR5 (human TGR5; listed as Fex): does not activate
